Among the data in patent US7179814B2, “Agents for controlling plant pests” (priority 1998, dated 2007) are Kill in %, pest or weed control and Efficacy in % values, retold here.

Each structure is given as a SMILES string.

Holding throughout (assay type): in vivo
Experiment [1] has as its system larvae of the mustard beetle (Phaedon cochleariae). The experiment in a line: Phaedon larvae test (cabbage leaf dip). How it is done: (§1) To produce a suitable preparation of active compound, 1 part by weight of an active compound or an active compound combination is mixed with the stated amounts of solvent and emulsifier, and the concentrate is diluted with water to the desired concentration.
Cabbage leaves (Brassica oleracea) are treated by being dipped into the preparation of active compound of the desired concentration and are populated with larvae of the mustard beetle (Phaedon cochleariae) while the leaves are still moist.
After the desired period of time, the kill in % is determined. 100% means that all beetle larvae have been killed; 0% means that none of the beetle larvae have been killed.

For experiment [2], the system named is caterpillars of the diamondback moth (Plutella xylostella). The experiment can be described thus: Plutella test (cabbage leaf dip). As for the experimental part: as §1
Cabbage leaves (Brassica oleracea) are treated by being dipped into the preparation of active compound of the desired concentration and are populated with caterpillars of the diamondback moth (Plutella xylostella) while the leaves are still moist.
After the desired period of time, the kill in % is determined 100% means that all caterpillars have been killed; 0% means that none of the caterpillars have been killed.

For experiment [3], the system named is Diabrotica balteata larvae in soil. The experiment in a line: Critical concentration test/soil insects, Diabrotica balteata. To be noted: Diabrotica balteata, 168 h, 7 days after infestation, read-out: Kill in %. How it is done: (§2) To produce a suitable preparation of active compound, 1 part by weight of the active compound or the active compound mixture is mixed with the stated amounts of solvent and emulsifier, and the concentrate is diluted with water to the desired concentration.
(§3) The active compound preparation is mixed intimately with soil. Here, the concentration of the active compound in the preparation is almost irrelevant; only the amount by weight of active compound or active compound mixture per volume unit of soil, which is stated in ppm (mg/l), matters.
Soil is filled into 0.5 l pots and these are allowed to stand at 20° C. Immediately after preparation, 5 pre-germinated maize corns are placed into each pot. After 2 days, the test insects are placed into the treated soil. After a further 7 days, the kill in % is determined. 100% means that all test insects have been killed; 0% means that none of the test insects have been killed.

In experiment [4] the test system is Phaedon cochleariae larvae. The experiment can be described thus: Critical concentration test/root-systemic action, Phaedon cochleariae. The following applies: 72 h, root-systemic, 3 days after infestation, read-out: Kill in %. As for the experimental part:
as §2, §3
Soil is filled into 250 ml pots and these are planted with cabbage (Brassica oleracea). The active compound or the active compound combination can thus be taken up by the plant roots from the soil and transported into the leaves.
After 7 days, the leaves are populated with the abovementioned test animals. After a further 3 days, the kill in % is determined. 100% means that all test insects have been killed; 0% means that the number of insects which are still alive is the same as in the untreated control.

Experiment [5] concerns Puccinia recondita. The experiment can be described thus: Puccinia test (wheat)/protective. The following applies: 62.5 g/ha, 10 days after inoculation. As for the experimental part:
To produce a suitable preparation of active compound, 1 part by weight of active compound or active compound combination is mixed with the stated amounts of solvent and emulsifier, and the concentrate is diluted with water to the desired concentration, or a commercial formulation of active compound or active compound combination is diluted with water to the desired concentration.
To test for protective activity, young plants are sprayed with the active compound preparation at the stated application rate. After the spray coating has dried on, the plants are sprayed with a conidia suspension of Puccinia recondita. The plants remain in an incubation cabin at 20° C. and 100% relative atmospheric humidity for 48 hours.
The plants are then placed in a greenhouse at a temperature of approximately 20° C. and a relative atmospheric humidity of 80% to promote the development of rust pustules.
Evaluation is carried out 10 days after the inoculation. 0% means an efficacy which corresponds to that of the control, whereas an efficacy of 100% means that no infection is observed.

Turning to `N#C/N=C1/SCCN1Cc1ccc(Cl)nc1` [formula (I)], the Kill in % was found to be 5% in experiment [1] (concentration 0.00016 %), 40% in experiment [1] (concentration 0.0008 %), 0% in experiment [2] (concentration 0.0008 %) and 60% in experiment [2] (concentration 0.004 %). Moreover, the pest or weed control at 1.25 ppm in experiment [3] (1.25 ppm in soil) stood at 0%. The pest or weed control at 2.5 ppm was determined as 40% in experiment [3] (2.50 ppm in soil) and 0% in experiment [4] (2.50 ppm in soil). Further, the results for the pest or weed control at 5 ppm in experiment [3] (5.00 ppm in soil) and in experiment [4] (5.00 ppm in soil) were 90% and 80%, respectively. Further, the pest or weed control at 10 ppm in experiment [4] (10.00 ppm in soil) worked out at 95%. Also, the Efficacy in % in experiment [5] stood at 0%.
